Here are results for two substances from patent US20250017964A1, “ENGINEERING OR INDUCING PDGF AND/OR PDGFR SIGNALING TO ENHANCE NK CELL THERAPY” (City of Hope, priority 2021, published 2025).

One experiment concerns PDGF-D promoter. In words: ChIP-qPCR, binding of p65 to the PDGF-D promoter. The following applies: IL-15-stimulated NK cells (1 h); not in resting NK cells. The experiment is classed as cell-based, human. The procedure:
FIGS. 5A-5J. IL-15 induces PDGF-D expression in an autocrine manner. (A) mRNA levels of PDGFA, PDGFB, PDGFC, and PDGF-D in T cells, B cells, and NK cells were analyzed using the BioGPS online tool. (B) mRNA levels of PDGFA, PDGFB, PDGFC, and PDGF-D in T cells, B cells, and NK cells were examined by qPCR (n=10). (C) Primary NK cells were treated with IL-15 (10 ng/ml) for the indicated times. mRNA levels of PDGF-D were examined by qPCR (n=3). (D-E) Representative dot plots and percentages of PDGF-D levels in NK cells after IL-15 (50 ng/ml) treatment for 24 h. Resting NK cells were used as control (n=5). […] (I-J) Binding of p65 to the PDGF-D promoter in IL-15 treated (I) or resting NK cells (J) as determined by ChIP-qPCR (n=3). Data represent three independent experiments. Data shown are means±SD. NS, not significant, *P<0.05, **P<0.01, ***P<0.001, and ****P<0.0001.
Primary NK cells were treated with IL-15 for 1 h. The cells were cross-linked in 1% formaldehyde and quenched with glycine buffer. ChIP assays were carried out using a Pierce Magnetic ChIP Kit (Cat No.26157, Thermo Scientific) according to the manufacturer's instructions. Digested chromatin was incubated overnight with a p65 ChIP-grade antibody (#8242, Cell Signaling Technology) or IgG control antibody (#3900, Cell Signaling Technology). The enriched chromatin was analyzed by qPCR using the following primers: […]

The subject of experiment [1] is NOD/SCID/IL-2rg (NSG) mice. The experiment in a line: PDGF-D injection after NK cell adoptive transfer into NSG mice, annexin V and Ki-67. Particulars: in vivo, PDGF-D 1 μg per mouse i.v. daily for 3 days. The procedure:
FIGS. 6A-6M. IL-15 maintains NK cell survival through a PDGF-D-PDGFRβ autocrine pathway. (A) 1×10^5 primary NK cells were cultured in vitro for 7 days in the presence of IL-15 (10 ng/ml) and PDGF-D (50 ng/ml). Cells were counted on days 3, 5, and 7 (n=3). (B) 1×10^5 primary NK cells were cultured in vitro for 7 days in the presence of IL-15 (10 ng/ml) and anti-PDGF-D (10 βg/ml) or control IgG (10 μg/ml). Cells were counted on days 3, 5, and 7 (n=3). […] The cells were counted by trypan exclusion assay on days 3, 5, and 7 (n=3). (D) 1×10^5 primary NK cells were cultured in vitro for 7 days in the presence of IL-15 (10 ng/ml) and PDGF-D (50 ng/ml) as well as anti-PDGFRβ (10 μg/ml). Cells were counted by trypan exclusion assay on days 3, 5, and 7 (n=3). (E) 1×10^5 primary NK cells were cultured in vitro for 7 days in the presence of IL-15 (10 ng/ml) and PDGF-D (50 ng/ml) as well as anti-NKp44 (10 μg/ml). Cells were counted by trypan exclusion assay on days 3, 5, and 7 (n=3). (F-I) Primary NK cells were cultured in the presence of IL-15 (10 ng/ml) and PDGF-D (50 ng/ml) as well as anti-NKp44 (10 μg/ml) or anti-PDGFRβ (10 Kg/ml) for 48 h. The cultured NK cells were then harvested for immunoblotting to determine protein levels of BCL-2, BCL-XL, and MCL-1 (n=3). […] Cell apoptosis and proliferation were analyzed by annexin V staining (J) and Ki-67 staining (K), respectively. […]

As for “IL-15: recombinant human IL-15 (200-15); recombinant murine IL-15 in the mouse NK cell test”, the “p65 enrichment at the PDGF-D promoter versus normal IgG control” value in the experiment on PDGF-D promoter is “significantly enriched”.
For “PDGF-D: recombinant human PDGF-DD (1159-SB-025), R&D Systems”, the “NK cell proliferation (Ki67)” value in experiment [1] is recorded as “did not affect NK cell proliferation”. Moreover, the “apoptosis of PDGFRβ^+ NK cells (annexin V)” value in experiment [1] (peripheral blood) was “inhibited apoptosis”.
